From patent US8697372B2, “Method for determining the binding of a given compound to a membrane receptor” (CIS Bio International, priority 2009, dated 2014)

Biological target: T1, Delta Opioid receptor implicated in the heterodimer with Dopamine D2 (Homo sapiens, UniProt P41143)
T1 construct: membrane-addressing signal peptide T8 (printed '18') (N); expressed in transfected cells; host or cells: HEK293T/17 cells, transient co-transfection
Assay type: binding
Conditions: 3 nM red antagonist of the opioid receptor, D2 receptor labeled with HALO-Lumi4Tb, HEK293T cells, FIG. 10

T1 sequence (P41143 whole entry): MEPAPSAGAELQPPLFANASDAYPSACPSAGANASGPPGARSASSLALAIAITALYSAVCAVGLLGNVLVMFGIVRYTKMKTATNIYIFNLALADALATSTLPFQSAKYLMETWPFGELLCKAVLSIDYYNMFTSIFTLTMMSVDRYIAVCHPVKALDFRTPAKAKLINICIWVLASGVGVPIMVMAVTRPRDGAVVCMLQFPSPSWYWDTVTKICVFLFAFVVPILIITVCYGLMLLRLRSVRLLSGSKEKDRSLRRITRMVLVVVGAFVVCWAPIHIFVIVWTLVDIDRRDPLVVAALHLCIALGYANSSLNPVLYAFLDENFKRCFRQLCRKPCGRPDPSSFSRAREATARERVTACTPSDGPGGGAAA
T1 sequence (P14416 1-414 isoform P14416-2 partner): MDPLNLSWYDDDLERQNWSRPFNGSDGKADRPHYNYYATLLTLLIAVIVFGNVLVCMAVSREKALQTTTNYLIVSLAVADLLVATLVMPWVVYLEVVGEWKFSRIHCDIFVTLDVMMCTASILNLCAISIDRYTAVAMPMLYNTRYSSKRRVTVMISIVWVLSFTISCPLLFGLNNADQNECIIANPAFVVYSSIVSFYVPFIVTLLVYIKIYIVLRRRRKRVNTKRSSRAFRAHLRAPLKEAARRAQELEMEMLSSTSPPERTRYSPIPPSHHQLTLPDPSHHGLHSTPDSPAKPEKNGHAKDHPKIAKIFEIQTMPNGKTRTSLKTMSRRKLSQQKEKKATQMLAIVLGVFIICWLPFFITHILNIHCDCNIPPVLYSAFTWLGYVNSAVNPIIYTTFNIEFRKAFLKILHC

Compound | Competition with the fluorescent reference ligand and binding to the heterodimers
C=CCN1C[C@H](C)N([C@@H](c2ccccc2)c2ccc(C(=O)N(CC)CC)cc2)C[C@H]1C [SNC-162] | compete with the fluorescent reference ligand and bind to the heterodimers
Oc1ccc2c3c1O[C@H]1c4[nH]c5ccccc5c4C[C@@]4(O)[C@@H](C2)N(CC2CC2)CC[C@]314 [Naltrindole] | compete with the fluorescent reference ligand and bind to the heterodimers
